Reference: patent US6420422B1, “Ocular hypotensive agents” (Sucampo Pharmaceuticals, Inc., priority 1987, dated 2002)

Experiments:
[1] = prior art statement; cited from earlier work
[2] = system: Japanese White male rabbits; assay: Intraocular pressure reduction and conjunctival hyperemia (Example 5, Table 1 (1)-(6)); type: in vivo; settings: intraocular pressure reduction (%), topical
Experimental: (§1) For the purpose of tonometry, Japanese White male rabbits (2.5-3.0 Kg) were fixed on braces. After topical anesthetization with 0.4% oxybuprocaine hydrochloride, intraocular pressure was measured using a pheumatic applanation tonometer (manufactured by Japan Alcon). After the topical application of 50 μl of the suspensions of the test drugs in a physiological saline to one eye, the intraocular pressure was measured and the intraocular pressure reduction (%) caused by each test drug was calculated. At the same time, the extent of conjunctival hyperemia was observed.

[3] = system: Japanese White male rabbits; assay: as above; type: in vivo; design: key: −: none; +−: barely visible hyperemia; +: slight hyperemia; ++: moderate hyperemia; +++: severe hyperemia; +++*: *: lid-closing and severe hyperemia are observed; settings: extent of conjunctival hyperemia; topical, dose 100 μg/eye
Experimental: as §1

[4] = system: Japanese White male rabbits; assay: as above; type: in vivo; design: key: −: scarcely observed; ±: extremely weak hyperemia; +: slight hyperemia; ++: pronounced hyperemia; +++: severe hyperemia; +++*: *: Lid closure and lacrimation were observed; settings: extent of conjunctival hyperemia, topical
Experimental: as §1

[5] = system: Japanese White male rabbits; assay: Change in intraocular pressure with time after application (Example 4, FIG. 1); type: in vivo; settings: topical 25 μg/eye, every 1 hr until 6 hr, 6 rabbits per group
Experimental: FIG. 1 is a graph showing change in intraocular pressure with time after application of prostaglandins E2 to rabbits, wherein applied drugs were as follows:
For the purpose of tonometry, Japanese White male rabbits (2.5-3.0 Kg) were fixed on braces, and after topical anesthetization with 0.4% oxybuprocaine hydrochloride, intraocular pressure was measured using a pheumatic applanation tonometer (manufactured by Japan Alcon K.K.).
The test drugs were suspended in a physiological saline. A 50 μl aliquot […] of the suspension (25 μg/eye of the test drug) was topically applied to one eye. The contralateral control eye received physiological saline. Intraocular pressure was measured at every 1 hr, until 6 hr, after topical application. In this experiment, 6 rabbits per group were used, and the mean values of intraocular pressure of the treated eye at each time were calculated.

Compound: CCCCCC(=O)/C=C/[C@@H]1[C@@H](C/C=C\CCCC(=O)O)[C@@H](O)C[C@H]1O [15-keto-PGF2]
- Ocular hypotensive activity (in words) [1]: a very little

Compound: CCCCC[C@H](O)/C=C/[C@@H]1[C@@H](C/C=C\CCCC(=O)O)[C@@H](O)C[C@H]1O [PGF2]
- Ocular hypotensive activity (in words) [1]: high ocular hypotensive activity

Compound: CCCCCC(=O)CCC1C=CC(=O)C1C/C=C\CCCC(=O)OCC (stereo not shown) [Test Drug (3), 13,14-dihydro-15-keto-PGA2 ethyl ester]
- Percent change of IOP ([2]; dose 100 μg/eye): 24%
- Hyperemia [3]: +

Compound: CCCCCCCC(=O)CCC1C=CC(=O)C1C/C=C\CCCC(=O)OC(C)C (stereo not shown) [Test Drug (8), 13,14-dihydro-15-keto-20-ethyl-PGA2 isopropyl ester]
- Percent change of IOP ([2]; dose 50 μg/eye): 27%
- Hyperemia ([4]; dose 50 μg/eye): −

Compound: CCCCCC(=O)CCC1C(=O)CC(O)C1C/C=C\CCCC(=O)OCC (stereo not shown) [Test Drug (30), 13,14-dihydro-15-keto-PGD2 ethyl ester]
- Percent change of IOP ([2]; dose 250 μg/eye): 20%
- Hyperemia ([4]; dose 250 μg/eye): ±

Compound: CCCCCC(=O)CCC1C(=O)CC(O)C1CC#CCCCC(=O)OC (stereo not drawn) [Test Drug (34), 13,14-dihydro-15-keto-5,6-dehydro-9β-PGD2 methyl ester]
- Percent change of IOP ([2]; dose 250 μg/eye): 23%
- Hyperemia ([4]; dose 250 μg/eye): ±

Compound: CCCCC(F)C(=O)CCC1C(=O)CC(O)C1C/C=C\CCCC(=O)OC (stereo not shown) [Test Drug (35), 13,14-dihydro-15-keto-16R,S-fluoro-PGD2 methyl ester]
- Percent change of IOP ([2]; dose 100 μg/eye): 13%
- Hyperemia [3]: +

Compound: CCCCCC(=O)CC[C@H]1[C@H](O)CC(=O)[C@@H]1C/C=C\CCCC(=O)O [Test Drug (56), 13,14-dihydro-15-keto-PGE2]
- Intraocular pressure response (in words) [5]: ocular hypotensive potency without transient ocular hypertensive response

Compound: CCCCC[C@H](O)/C=C/[C@H]1[C@H](O)CC(=O)[C@@H]1C/C=C\CCCC(=O)O [Test Drug (73), PGE2, reference compound]
- Intraocular pressure response (in words) [5]: transient ocular hypertensive response

Compound: CCCCCCCCC(=O)CCC1C(O)CC(O)C1C/C=C\CCCC(=O)OC (stereo not drawn) [Test Drug (90), 13,14-dihydro-15-keto-20-n-propyl-PGF2^α methyl ester]
- Percent change of IOP ([2]; dose 250 μg/eye): 25%
- Hyperemia ([4]; dose 250 μg/eye): ±
